ChEMBL document CHEMBL1201862, “PubChem BioAssay data set” (2004)
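Interpolation was linear, between the two tested concentrations surrounding the appropriate level; five concentrations were tested over 48 hours in 96-well plates. GI50 marks 50% less growth.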 The source made the active and inactive calls. Rule as the data show it: active = GI50 up to about 1.1 µM and inactive = higher.

What was measured:
Experiment in all cases: growth of human tumour cells (NCI), 48 h
A549 = system: A549
CAKI-1 = system: CAKI-1
HCC 2998 = system: HCC 2998
HCT-116 = system: HCT-116
HL-60 = system: HL-60
HT-29 = system: HT-29
M14 = system: M14
MDA-MB-231 = system: MDA-MB-231
MOLT-4 = system: MOLT-4
Malme-3M = system: Malme-3M
NCI-H522 = system: NCI-H522
OVCAR-5 = system: OVCAR-5
SK-MEL-2 = system: SK-MEL-2
SK-MEL-5 = system: SK-MEL-5
SNB-75 = system: SNB-75
TK-10 = system: TK-10
UACC-257 = system: UACC-257
COLO 205 = system: COLO 205
KM12 = system: KM12
SN12C = system: SN12C

Measured: GI50

Cc1cccc2c1CC1(Cc3c(C)cccc3C1=O)C2=O
inactive: A549 > 100 µM | CAKI-1 > 100 µM | HCC 2998 > 100 µM | HCT-116 > 100 µM | HL-60 > 100 µM | HT-29 > 100 µM | M14 > 100 µM | MDA-MB-231 > 100 µM | MOLT-4 > 100 µM | Malme-3M > 100 µM | NCI-H522 > 100 µM | OVCAR-5 > 100 µM | SK-MEL-2 > 100 µM | SK-MEL-5 > 100 µM | SNB-75 > 100 µM | TK-10 > 100 µM | UACC-257 > 100 µM

COC(Cc1ccccc1)NC(C)=O (stereo not drawn)
inactive: A549 > 100 µM | CAKI-1 > 100 µM | COLO 205 > 100 µM | HCC 2998 > 100 µM | HCT-116 > 100 µM | HL-60 > 100 µM | HT-29 > 100 µM | KM12 > 100 µM | M14 > 100 µM | MDA-MB-231 > 100 µM | MOLT-4 > 100 µM | Malme-3M > 100 µM | NCI-H522 > 100 µM | OVCAR-5 > 100 µM | SK-MEL-2 > 100 µM | SK-MEL-5 > 100 µM | SN12C > 100 µM | SNB-75 > 100 µM | TK-10 > 100 µM | UACC-257 > 100 µM

C=CC(Br)(CBr)CCC1OC1(C)C (stereo not drawn)
inactive: A549 23.1 µM | CAKI-1 19.5 µM | COLO 205 18.7 µM | HCC 2998 18.9 µM | HCT-116 17 µM | HL-60 23.1 µM | HT-29 17.4 µM | KM12 17.1 µM | M14 13.9 µM | MDA-MB-231 11.8 µM | MOLT-4 16.7 µM | Malme-3M 23.5 µM | NCI-H522 17.2 µM | OVCAR-5 18.9 µM | SK-MEL-2 15.1 µM | SK-MEL-5 14.2 µM | SN12C 16.6 µM | SNB-75 17.2 µM | TK-10 20.2 µM | UACC-257 14.6 µM

CC1(C)CC(=O)C(=CNC(=S)c2ccccc2)C(=O)C1
inactive: A549 > 100 µM | CAKI-1 > 100 µM | COLO 205 > 100 µM | HCC 2998 > 100 µM | HCT-116 > 100 µM | HL-60 32.3 µM | HT-29 > 100 µM | KM12 > 100 µM | M14 > 100 µM | MDA-MB-231 > 100 µM | MOLT-4 13.6 µM | NCI-H522 > 100 µM | OVCAR-5 > 100 µM | SK-MEL-2 > 100 µM | SK-MEL-5 > 100 µM | SN12C > 100 µM | SNB-75 > 100 µM | TK-10 > 100 µM | UACC-257 > 100 µM

CCOC(=O)C(NCc1ccc2c(c1)OCO2)(NC(=O)c1ccccc1)C(F)(F)F (stereo not drawn)
inactive: A549 71 µM | CAKI-1 > 100 µM | COLO 205 > 100 µM | HCC 2998 > 100 µM | HCT-116 89.1 µM | HL-60 16.9 µM | HT-29 > 100 µM | KM12 88.1 µM | M14 > 100 µM | MDA-MB-231 64.4 µM | MOLT-4 18 µM | Malme-3M > 100 µM | NCI-H522 39.1 µM | OVCAR-5 > 100 µM | SK-MEL-2 > 100 µM | SK-MEL-5 > 100 µM | SN12C > 100 µM | SNB-75 > 100 µM | TK-10 > 100 µM | UACC-257 > 100 µM

CC1=NN(C(=O)c2ccccc2O)C(=O)/C1=C/c1cccc(O)c1
inactive: CAKI-1 > 100 µM | COLO 205 32.8 µM | HCC 2998 12.6 µM | HL-60 2.9 µM | HT-29 39.2 µM | MDA-MB-231 38.8 µM | Malme-3M 1.94 µM | NCI-H522 1.22 µM | OVCAR-5 5.56 µM | SK-MEL-5 3.2 µM | SN12C 45.9 µM | TK-10 4.76 µM | UACC-257 1.21 µM
active: A549 0.375 µM | HCT-116 0.244 µM | KM12 0.389 µM | M14 0.446 µM | SK-MEL-2 0.968 µM | SNB-75 0.258 µM

N#C[BH2-][n+]1cn(C2CC(O)C(COP(=O)(O)OC3CC(n4c[n+]([BH2-]C#N)c5c(=O)[nH]c(N)nc54)OC3CO)O2)c2nc(N)[nH]c(=O)c21 (stereo not drawn)
inactive: A549 > 100 µM | CAKI-1 > 100 µM | COLO 205 > 100 µM | HCC 2998 > 100 µM | HCT-116 > 100 µM | HL-60 > 100 µM | HT-29 > 100 µM | KM12 > 100 µM | M14 > 100 µM | MDA-MB-231 > 100 µM | MOLT-4 > 100 µM | Malme-3M > 100 µM | NCI-H522 > 100 µM | OVCAR-5 > 100 µM | SK-MEL-2 > 100 µM | SK-MEL-5 > 100 µM | SN12C > 100 µM | SNB-75 > 100 µM

O=C1c2cc3c(cc2CC12Cc1ccc4c(c1C2=O)CCCC4)CCCC3 (stereo not drawn)
inactive: A549 82.6 µM | CAKI-1 > 100 µM | HCC 2998 > 100 µM | HCT-116 27.7 µM | HL-60 > 100 µM | HT-29 > 100 µM | M14 > 100 µM | MDA-MB-231 48.3 µM | MOLT-4 > 100 µM | Malme-3M 21.5 µM | NCI-H522 85.7 µM | OVCAR-5 > 100 µM | SK-MEL-2 45.6 µM | SK-MEL-5 > 100 µM | SNB-75 69.8 µM | TK-10 > 100 µM | UACC-257 > 100 µM

CN(C)CCOc1ccc2[nH]c(C(=O)N3CC(CCl)c4c3cc(NC(=O)OCc3ccc([N+](=O)[O-])cc3)c3ccccc43)cc2c1 (stereo not drawn)
active: HCT-116 0.794 µM | HL-60 0.269 µM | MOLT-4 0.538 µM
inactive: A549 1.24 µM | CAKI-1 1.18 µM | COLO 205 1.64 µM | HCC 2998 8.15 µM | KM12 1.29 µM | M14 1.63 µM | MDA-MB-231 2.14 µM | Malme-3M 1.47 µM | NCI-H522 1.12 µM | OVCAR-5 1.6 µM | SK-MEL-2 2.14 µM | SK-MEL-5 1.45 µM | SN12C 1.5 µM | SNB-75 1.63 µM | TK-10 14.2 µM | UACC-257 14.6 µM

COc1ccc(COCC[C@H](C)OC2OC(CO[Si](C)(C)C(C)(C)C)C(OC(=O)CCCN=[N+]=[N-])C(OC(=O)CCCN=[N+]=[N-])C2OC(=O)CCCN=[N+]=[N-])cc1 (stereo partly drawn)
inactive: A549 > 100 µM | CAKI-1 36.9 µM | COLO 205 25.6 µM | HCC 2998 34.4 µM | HCT-116 19.5 µM | HL-60 10.6 µM | HT-29 22.3 µM | KM12 88.1 µM | M14 68.5 µM | MDA-MB-231 > 100 µM | Malme-3M > 100 µM | NCI-H522 18.7 µM | OVCAR-5 89.1 µM | SK-MEL-2 > 100 µM | SK-MEL-5 9.64 µM | SN12C 78.3 µM | SNB-75 14.2 µM | TK-10 > 100 µM | UACC-257 26.5 µM

Cc1cccc2c1C(=O)[C@](C)([C@]1(C)Nc3cccc(C)c3C1=O)N2
active: HL-60 < 0.01 µM
inactive: A549 26.4 µM | CAKI-1 27.4 µM | COLO 205 19.7 µM | HCC 2998 31.9 µM | HCT-116 56.6 µM | HT-29 29.1 µM | KM12 35.6 µM | M14 33.9 µM | MDA-MB-231 37.1 µM | MOLT-4 23.3 µM | Malme-3M 36.3 µM | NCI-H522 28.6 µM | OVCAR-5 24.3 µM | SK-MEL-2 24 µM | SK-MEL-5 29.4 µM | SN12C 29.6 µM | SNB-75 11 µM | UACC-257 30.8 µM

Nc1cc(CO)cc(Nc2c3ccccc3nc3occc23)c1
inactive: A549 40.4 µM | CAKI-1 28.6 µM | COLO 205 28.6 µM | HCC 2998 31.3 µM | HCT-116 24.8 µM | HL-60 22.8 µM | HT-29 6.76 µM | KM12 33.8 µM | M14 33.6 µM | MDA-MB-231 31.8 µM | MOLT-4 13.7 µM | Malme-3M 92 µM | NCI-H522 14.4 µM | OVCAR-5 > 100 µM | SK-MEL-2 23.6 µM | SK-MEL-5 23.1 µM | SN12C 39 µM | TK-10 52.6 µM | UACC-257 42.6 µM

C/C=C1/CN2CCC34c5ccccc5N(C)C23C2CC1C4(C(=O)OC)C(OC(C)=O)O2 (stereo not drawn)
inactive: A549 > 100 µM | CAKI-1 > 100 µM | COLO 205 > 100 µM | HCC 2998 > 100 µM | HCT-116 > 100 µM | HL-60 > 100 µM | HT-29 > 100 µM | KM12 > 100 µM | M14 > 100 µM | MDA-MB-231 > 100 µM | MOLT-4 > 100 µM | NCI-H522 > 100 µM | OVCAR-5 > 100 µM | SK-MEL-2 > 100 µM | SK-MEL-5 > 100 µM | SN12C > 100 µM | SNB-75 > 100 µM | TK-10 > 100 µM | UACC-257 > 100 µM

O=C(NCCCl)Nc1ccccc1
inactive: A549 > 100 µM | CAKI-1 > 100 µM | COLO 205 > 100 µM | HCC 2998 > 100 µM | HCT-116 > 100 µM | HL-60 > 100 µM | HT-29 > 100 µM | KM12 > 100 µM | MDA-MB-231 > 100 µM | MOLT-4 > 100 µM | Malme-3M > 100 µM | NCI-H522 > 100 µM | OVCAR-5 > 100 µM | SK-MEL-2 > 100 µM | SK-MEL-5 > 100 µM | SN12C > 100 µM | SNB-75 > 100 µM | UACC-257 > 100 µM
